What was measured:
Type in all cases: in vivo
[1] = system: windgrass (Apera spica-venti); experiment: Test B postemergence plant response; details: Postemergence
Outline: (§1)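 Plants at the 1- to 4-leaf stage (2 to 18 cm tall), grown in pots of peat moss/vermiculite medium with wetting agent and starter nutrients, received postemergence applications of test chemicals. After 13 to 15 days in a greenhouse, injury was rated visually against untreated controls on a 0 (no effect) to 100 (complete control) scale.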

[2] = system: chickweed (Stellaria media); experiment: Test B postemergence plant response; details: Postemergence
Outline: as §1

[3] = system: canarygrass (Phalaris minor); experiment: Test B postemergence plant response; details: Postemergence
Outline: as §1

[4] = system: rice (Oryza sativa); experiment: Test B flooded paddy test; details: for Plant response rating, Flood, Rice: 250 g ai/ha, flooded paddy test, visual rating on 0 to 100 scale (0 no effect, 100 complete control) after 13 to 15 days; for Plant response rating, Rice: Flood (flooded paddy test), 13 to 15 days
Outline: (§2)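 Visual scores run from 0 (no effect) to 100 (complete control), assigned by comparison with controls 13 to 15 days after treatment. Test compounds went straight into water standing 3 cm above the soil, around plants at the 2-leaf stage kept in a greenhouse.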

[5] = system: ducksalad (Heteranthera limosa); experiment: Test B flooded paddy test; details: for Plant response rating, Flood, Ducksalad: 250 g ai/ha, flooded paddy test, visual rating on 0 to 100 scale (0 no effect, 100 complete control) after 13 to 15 days; for Plant response rating, Ducksalad: Flood (flooded paddy test), 13 to 15 days
Outline: as §2

[6] = system: pigweed (Amaranthus retroflexus); experiment: Test A pre-/postemergence plant response
Outline: (§3)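 Plants grown from seed in a loam soil and sand mix received test compounds both as a preemergence soil spray and, at the same time, as a postemergence spray at the one- to two-leaf stage. Injury was judged visually against untreated controls roughly ten days later, 0 meaning no effect and 100 complete control.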

[7] = system: large crabgrass (Digitaria sanguinalis); experiment: Test A pre-/postemergence plant response
Outline: as §3

[8] = system: morningglory (Ipomoea spp.); experiment: Test A pre-/postemergence plant response
Outline: as §3

[9] = system: wheat (Triticum aestivum); experiment: Test A pre-/postemergence plant response
Outline: as §3

[10] = system: corn (Zea mays); experiment: Test A pre-/postemergence plant response
Outline: as §3

[11] = system: barnyardgrass (Echinochloa crus-galli); experiment: Test A pre-/postemergence plant response
Outline: as §3

[12] = system: giant foxtail (Setaria faberii); experiment: Test A pre-/postemergence plant response
Outline: as §3

[13] = system: velvetleaf (Abutilon theophrasti); experiment: Test A pre-/postemergence plant response
Outline: as §3

[14] = 31 g ai/ha, 0 to 100 scale (0 no effect, 100 complete control)
[15] = 62 g ai/ha, scale 0 to 100 (0 no effect, 100 complete control)
[16] = 125 g ai/ha, scale 0 to 100 (0 no effect, 100 complete control)
[17] = 250 g ai/ha, scale 0 to 100 (0 no effect, 100 complete control), 13 to 15 days
[18] = 62 g ai/ha, scale of 0 to 100 where 0 is no effect and 100 is complete control
[19] = 125 g ai/ha, scale 0 to 100, 0 is no effect, 100 is complete control
[20] = Flood, 31 g ai/ha, scale 0 to 100 (0 no effect, 100 complete control)
[21] = Postemergence, 125 g ai/ha, 0 to 100 scale where 0 is no effect and 100 is complete control
[22] = Postemergence, 500 g ai/ha, visual injury, 0 to 100 scale (0 no effect, 100 complete control), approx. ten days
[23] = Preemergence, 125 g ai/ha, 0 to 100 scale, 0 = no effect, 100 = complete control
[24] = Preemergence, 500 g ai/ha, 0 to 100 scale, 0 = no effect, 100 = complete control
[25] = 31 g ai/ha, scale 0 to 100 (0 no effect, 100 complete control)
[26] = 62 g ai/ha, scale 0 (no effect) to 100 (complete control), 13 to 15 days
[27] = 125 g ai/ha, visual rating after 13 to 15 days, scale 0 (no effect) to 100 (complete control)
[28] = 62 g ai/ha, scale 0 to 100, 0 is no effect, 100 is complete control
[29] = Postemergence, 125 g ai/ha, visual injury, 0 to 100 scale (0 no effect, 100 complete control), approx. ten days
[30] = Postemergence, 500 g ai/ha, 0 to 100 scale, 0 = no effect, 100 = complete control, approx. ten days
[31] = Preemergence, 500 g ai/ha, visual injury, 0 to 100 scale (0 no effect, 100 complete control), approx. ten days

Cc1cc(-n2c(-c3cccc(F)c3)ncc(C(=O)C3=C(O)CCCC3=O)c2=O)ccc1F [Compound 191]
100: Plant response rating, Windgrass [1, 17] | Plant response rating, Chickweed [2, 17] | Plant response rating, Flood, Ducksalad [5] | Plant response rating, Pigweed [6, 24] | Crabgrass, Large plant response rating [7, 22] | Plant response rating, Crabgrass, Large [7, 24] | Morningglory plant response rating [8, 22] | Barnyardgrass plant response rating [11, 22] | Foxtail, Giant plant response rating [12, 22] | Plant response rating, Velvetleaf [13, 21] | Velvetleaf plant response rating [13, 22] | Plant response rating, Velvetleaf [13, 24]
50: Plant response rating, Canarygrass [3, 15] | Plant response rating, Crabgrass, Large [7, 23] | Wheat plant response rating [9, 22] | Corn plant response rating [10, 22]
0: Plant response rating, Flood, Rice [4] | Plant response rating, Rice [4, 18] | Plant response rating, Rice [4, 19] | Rice plant response rating [4, 20] | Plant response rating, Morningglory [8, 23] | Plant response rating, Wheat [9, 21] | Plant response rating, Wheat [9, 23] | Plant response rating, Corn [10, 21] | Plant response rating, Corn [10, 23]
75: Plant response rating, Ducksalad [5, 19]
40: Plant response rating, Foxtail, Giant [12, 23]
10: Plant response rating, Barnyardgrass [11, 23]
55: Plant response rating, Windgrass [1, 14]
80: Plant response rating, Pigweed [6, 21] | Plant response rating, Pigweed [6, 23] | Plant response rating, Barnyardgrass [11, 24] | Plant response rating, Foxtail, Giant [12, 21]
65: Ducksalad plant response rating [5, 20]
90: Pigweed plant response rating [6, 22] | Plant response rating, Morningglory [8, 21] | Plant response rating, Barnyardgrass [11, 21] | Plant response rating, Foxtail, Giant [12, 24]
60: Plant response rating, Canarygrass [3, 16] | Plant response rating, Velvetleaf [13, 23]
70: Plant response rating, Crabgrass, Large [7, 21] | Plant response rating, Morningglory [8, 24]
30: Plant response rating, Corn [10, 24]
98: Plant response rating, Chickweed [2, 14] | Plant response rating, Chickweed [2, 15] | Plant response rating, Chickweed [2, 16]
20: Plant response rating, Canarygrass [3, 14] | Plant response rating, Wheat [9, 24]
85: Plant response rating, Windgrass [1, 15] | Plant response rating, Windgrass [1, 16] | Plant response rating, Canarygrass [3, 17] | Plant response rating, Ducksalad [5, 18]

O=C1CCCC(O)=C1C(=O)c1cnc(-c2ccccc2)n(-c2ccccc2F)c1=O [Compound 26]
30: Plant response rating, Windgrass [1, 26] | Plant response rating, Canarygrass [3, 26] | Barnyardgrass plant response rating [11, 29] | Plant response rating, Foxtail, Giant [12, 23]
60: Windgrass plant response rating ([1]; 250 g ai/ha, scale 0 to 100) | Canarygrass plant response rating ([3]; 250 g ai/ha, scale 0 to 100) | Plant response rating, Pigweed [6, 23] | Plant response rating, Barnyardgrass [11, 31]
75: Plant response rating, Ducksalad [5, 28]
100: Plant response rating, Pigweed [6, 30] | Plant response rating, Pigweed [6, 31] | Velvetleaf plant response rating [13, 29] | Plant response rating, Velvetleaf [13, 30] | Plant response rating, Velvetleaf [13, 31]
20: Plant response rating, Canarygrass [3, 25] | Plant response rating, Crabgrass, Large [7, 23] | Plant response rating, Corn [10, 30] | Plant response rating, Velvetleaf [13, 23]
40: Plant response rating, Windgrass [1, 27] | Plant response rating, Chickweed [2, 25]
80: Plant response rating, Morningglory [8, 30] | Plant response rating, Barnyardgrass [11, 30]
90: Pigweed plant response rating [6, 29] | Plant response rating, Crabgrass, Large [7, 30] | Plant response rating, Crabgrass, Large [7, 31] | Plant response rating, Foxtail, Giant [12, 30]
0: Plant response rating, Flood, Rice [4] | Plant response rating, Rice [4, 28] | Wheat plant response rating [9, 29] | Plant response rating, Wheat [9, 30] | Plant response rating, Wheat [9, 23] | Plant response rating, Wheat [9, 31] | Corn plant response rating [10, 29] | Plant response rating, Corn [10, 23] | Plant response rating, Corn [10, 31] | Plant response rating, Barnyardgrass [11, 23]
10: Plant response rating, Windgrass [1, 25] | Plant response rating, Morningglory [8, 23]
85: Plant response rating, Chickweed [2, 27] | Chickweed plant response rating ([2]; 250 g ai/ha, scale 0 to 100) | Plant response rating, Flood, Ducksalad [5]
70: Crabgrass, Large plant response rating [7, 29] | Plant response rating, Morningglory [8, 31] | Plant response rating, Foxtail, Giant [12, 31]
50: Plant response rating, Chickweed [2, 26] | Plant response rating, Canarygrass [3, 27] | Morningglory plant response rating [8, 29] | Foxtail, Giant plant response rating [12, 29]

Source: patent US8952024B2, “Herbicidal pyrimidone derivatives” (E I du Pont de Nemours and Company, priority 2009, dated 2015)
